Values quoted from earlier work in patent US7601526B2 (priority 2004, dated 2009).

Test system: F. tularensis

| SMILES | type of antibacterial action against F. tularensis |
| --- | --- |
| [H]/N=C(/N)N[C@H]1[C@H](O)[C@@H](O)[C@H](O[C@@H]2O[C@@H](C)[C@](O)(C=O)[C@H]2O[C@@H]2O[C@@H](CO)[C@H](O)[C@@H](O)[C@@H]2NC)[C@@H](N/C(N)=N\[H])[C@@H]1O [Streptomycin] | bactericidal |
| O=C(N[C@H](CO)[C@H](O)c1ccc([N+](=O)[O-])cc1)C(Cl)Cl [chloramphenicol] | bacteriostatic |
